Source: patent publication US11186874B2, “ERK1 and ERK2 mutations that confer resistance to MAPK pathway inhibitors” (Dana-Farber Cancer Institute, Inc., priority 2014, dated 2021)

How the values were obtained:
ERK2 [1] = biological target: T1, ERK2 (Homo sapiens, UniProt P28482); test: IP kinase assay, V5-tagged ERK2, phosphorylation of recombinant ELK-1 peptide; format: biochemical; details: wild type ERK2; VX-11e 0.1 μM added during the kinase assay
T1 construct: made in house; host or cells: A375 cells, transient transfection; captured on V5-agarose beads
T1 sequence (P28482 2-360): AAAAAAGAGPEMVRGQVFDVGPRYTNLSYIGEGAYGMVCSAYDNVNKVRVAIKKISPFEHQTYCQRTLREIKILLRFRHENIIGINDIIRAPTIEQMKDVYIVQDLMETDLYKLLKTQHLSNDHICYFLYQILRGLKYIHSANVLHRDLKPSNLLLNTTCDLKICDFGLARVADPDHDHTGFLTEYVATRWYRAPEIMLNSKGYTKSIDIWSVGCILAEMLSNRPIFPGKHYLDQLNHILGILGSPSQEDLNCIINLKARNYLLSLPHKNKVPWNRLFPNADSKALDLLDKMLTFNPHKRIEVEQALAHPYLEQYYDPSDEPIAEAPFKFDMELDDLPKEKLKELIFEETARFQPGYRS
Description: (§1) Phosphorylation of ELK-1 (at serine 383) was measured by Western blotting.
(§2) ERK1 and ERK2 open constructs were transferred into DEST40 (C-terminal V5 tag) vector (Invitrogen) using LR clonase II. A375 cells were transiently transfected with V5-tagged ERK1 or ERK2 constructs using X-tremeGENE HP (Roche). […] Reactions were stopped with the addition on 3× SDS loading buffer. Samples were boiled and supernatant was run on SDS-PAGE gel for western blotting.

ERK2 [2] = test: as above; format: biochemical, human; details: for ERK kinase activity of ERK inhibitor resistance alleles in the presence of inhibitor: ERK2 resistance alleles, FIG. 3B, FIG. 10B
Description: as §1, §2

A375 cells = test: MTS growth assay of A375 cells expressing DOX-inducible ERK1/2 alleles in the presence of MAPK pathway inhibitors; format: cell-based
Source text: To verify their resistance effects, we engineered the relevant mutations for highly mutated alleles or for low frequency alleles that were analogous between ERK1 and ERK2 within the coding sequence of ERK1 or ERK2 by site directed mutagenesis in the doxycycline-inducible vector. […] Here, we defined validation as a >4-fold increase in cell growth conferred by DOX-induced mutant ERK expression compared to control cells cultured without DOX (FIG. 2A, Table 4, FIG. 8G).
A375, WM266.4, or SKmel19 cells were plated in 96-well plates, with six replicates for each drug. Drugs were added the next day with or without DOX. Cell growth was analyzed 72-96 hours later by MTS assay (Promega). The inhibitor concentrations were the same as the screen. […] Growth was normalized to DMSO, NO-DOX controls, and graphed as percent growth. Heatmaps were created from growth assays using GENE-E (Available on the World Wide Web at broadinstitute.org/cancer/software/GENE-E/download.html). For some growth assays, a half-log dose response curve was generated to determine sensitivity. The concentration of DMSO was 0.1%.

ERK1/2 = test: Western blotting of ERK signaling in A375 cells expressing ERK1/2 alleles; format: cell-based; details: for ERK signaling (RSK phosphorylation, DUSP6, cyclin D1) in the presence of ERK inhibitor: ten ERK inhibitor resistance alleles, DOX, 24 h
Description: Cells were exposed to DOX with or without MAPK inhibitor at the same doses used in the screen for 24 h, then harvested in RIPA buffer, and run on SDS-PAGE. Proteins were transferred to PVDF membranes and analyzed using the following antibodies phosphoERK1/2, ERK1/2, phosphoELK-1 S383 (Santa Cruz), phosphoRSK (S380), RSK, tubulin, DUSP6 (Cell Signaling), cyclin D1 (Thermo Scientific), and V5 (Abcam). Relative expression was calculated by comparing densities of bands of phoshoELK-1 to total ERK (or V5). Values were normalized to untreated WT, which was set at 1.

ERK1 [3] = biological target: T2, ERK1 (Homo sapiens, UniProt P27361, Y148H); test: IP kinase assay, V5-tagged ERK1, phosphorylation of recombinant ELK-1 peptide; format: biochemical; details: ERK1^Y148; trametinib 3 nM, 4 h
T2 construct: made in house; host or cells: A375 cells, transient transfection; captured on V5-agarose beads
T2 sequence (P27361 2-379 Y148H): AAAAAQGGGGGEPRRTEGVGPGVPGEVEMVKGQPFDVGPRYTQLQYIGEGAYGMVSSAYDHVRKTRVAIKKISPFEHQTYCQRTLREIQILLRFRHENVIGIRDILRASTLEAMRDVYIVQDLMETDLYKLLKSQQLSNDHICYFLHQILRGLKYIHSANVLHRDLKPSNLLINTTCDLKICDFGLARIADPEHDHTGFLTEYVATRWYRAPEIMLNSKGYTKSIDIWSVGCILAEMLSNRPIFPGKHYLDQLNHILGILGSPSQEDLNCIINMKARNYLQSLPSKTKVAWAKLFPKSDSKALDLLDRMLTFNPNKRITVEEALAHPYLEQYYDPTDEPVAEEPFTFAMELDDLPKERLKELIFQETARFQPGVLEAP

ERK1 [4] = test: as above; format: biochemical, human; details: ERK1 alleles; trametinib 3 nM, 4 h, added to cells prior to harvest

| SMILES | ELK-1 phosphorylation (serine 383) induced by wild type ERK2 (ERK2 [1]) | ERK kinase activity of ERK inhibitor resistance alleles in the presence of inhibitor (ERK2 [2]) | increase in cell growth conferred by DOX-induced mutant ERK expression compared to control cells cultured without DOX (A375 cells; 16 validated of 20 candidate ERK1/2 resistance alleles, VX-11e 2 μM) | effect on growth in the presence of the ERK inhibitor (A375 cells; kinase-dead ERK1 and ERK2 and GFP, VX-11e 2 μM) | growth advantage in the presence of the ERK inhibitor (A375 cells; wild-type ERK1 and ERK2, VX-11e 2 μM) | ERK signaling (RSK phosphorylation, DUSP6, cyclin D1) in the presence of ERK inhibitor (ERK1/2; A375) | ERK phosphorylation (ERK1/2; any context examined) | residual kinase activity of common docking domain mutants compared to other alleles (ERK2 [2]; ERK2^Y131, ERK2^D321G, ERK2^E322K, trametinib 3 nM, 4 h) | ERK kinase activity (ELK-1 peptide phosphorylation) of RAF/MEK inhibitor resistant alleles in the presence of MEK inhibitor (ERK2 [2]; ERK2 alleles, trametinib 3 nM, 4 h, added to cells prior to harvest) | residual kinase activity of common docking domain mutants compared to other alleles (ERK1 [3]) | ERK kinase activity (ELK-1 peptide phosphorylation) of RAF/MEK inhibitor resistant alleles in the presence of MEK inhibitor (ERK1 [4]) | growth advantage (A375 cells; ERK1^Y53H, 0.5 μM SCH772984) | increase in cell growth (A375 cells; ERK1^Y53H, 1 μM SCH772984) | increase in cell growth with allele expression (A375 cells; selected VX-11e-resistant ERK1 and ERK2 alleles, SCH772984) | phosphorylation of ERK2-resistant alleles (ERK1/2; A375, ERK inhibitor resistant ERK2 alleles) | phosphorylation of wild type ERK1/2 (ERK1/2; A375, wild type ERK1/2) |
| --- | --- | --- | --- | --- | --- | --- | --- | --- | --- | --- | --- | --- | --- | --- | --- | --- |
| Cc1cnc(Nc2ccc(F)cc2Cl)nc1-c1c[nH]c(C(=O)N[C@H](CO)c2cccc(Cl)c2)c1 [VX-11e] | completely blocked | maintained ERK kinase activity | > 4 fold | no effect | 1.5 fold | sustained ERK signaling | no effect |  |  |  |  |  |  |  |  |  |
| CC(=O)Nc1cccc(-n2c(=O)n(C3CC3)c(=O)c3c(Nc4ccc(I)cc4F)n(C)c(=O)c(C)c32)c1 [trametinib] |  |  |  |  |  |  |  | diminished residual kinase activity | maintained ERK kinase activity | diminished residual kinase activity | maintained ERK kinase activity |  |  |  |  |  |
| O=C(Nc1ccc2[nH]nc(-c3ccncc3)c2c1)[C@@H]1CCN(CC(=O)N2CCN(c3ccc(-c4ncccn4)cc3)CC2)C1 [SCH772984] |  | maintained ERK kinase activity |  |  |  | maintained |  |  |  |  |  | 5 fold | 2.5 fold | over 4 fold | no effect | decreased |
